Data reported in patent publication US10202580B2, “Adult oligodendrocyte-type 2 astrocyte progenitor cell production method” (Japan Science and Technology Agency, priority 2014, dated 2019).

Tested on: proliferating OPC
Experiment: Number of cell divisions per colony in TH- or RA-containing medium, oxygen 1.5% by volume (Example 3)
Assay type: cell-based, rat
Settings: RA 1 ng/mL; 1.5% O2; 12 days
Method: In addition, unless specifically indicated otherwise, the proliferating OPC used in the following examples were isolated from the optic nerves of 7-day-old rats (P7) in accordance with the immunopanning method of Barres, et al. (Barres, et al., Cell, 1992, Vol. 70, p. 31-46), and the purity thereof (percentage of proliferating OPC relative to all cells) was 99.9% or more.
Proliferating OPC were cultured in medium to which was added thyroid hormone or medium to which was added retinoic acid in an environment having an oxygen concentration of 1.5% by volume followed by investigating the effect of retinoic acid […] on the proliferating OPC.
Six glass bottom culture dishes having a diameter of 12 mm and-coated with PDL were prepared by seeding with 300 proliferating OPC per culture disk, followed by culturing for 12 days at 37° C. in an environment having an oxygen concentration of 1.5% by volume and carbon dioxide concentration of 5% by volume. […]
Following completion of culturing, the numbers of cells that formed colonies were respectively counted and the number of cell divisions was determined for each colony. […]

CC1=C(/C=C/C(C)=C/C=C/C(C)=C/C(=O)O)C(C)(C)CCC1 [RA, all-trans retinoic acid]
effect on proliferating OPC in a low oxygen environment: able to interrupt proliferation of proliferating OPC and induce differentiation to adult OPC
